Measurements published in ChEMBL document CHEMBL1201862, “PubChem BioAssay data set” (2004).
The source made the active and inactive calls.

Columns and labels:
[1] = toxicity to HepG2 liver cells – cell-based, plate reader, dry powder, set 6, cytotoxicity control, dose response (AID 743311); assay type: functional
[2] = toxicity to A549 lung cells – cell-based, plate reader, dry powder, set 6, cytotoxicity control, dose response (AID 743312); assay type: functional
cells = settings: HEK293
[3] = Luminescence-based cell-based high throughput dose response assay to identify activators of the DAF-12 from the parasite S. stercoralis (ssDAF-12).; assay type: functional
[4] = target: T1, Oxysterols receptor LXR-beta (Homo sapiens, UniProt P55055); experiment: LXR agonists, Gal4 luciferase reporter, dose response, counter-screen for ssDAF-12 agonist project, cell-based, luminescence, HEK293, S. stercoralis campaign (AID 720737); assay type: functional; settings: read-out: IC50 (the source's name)
T1 sequence (P55055 whole entry): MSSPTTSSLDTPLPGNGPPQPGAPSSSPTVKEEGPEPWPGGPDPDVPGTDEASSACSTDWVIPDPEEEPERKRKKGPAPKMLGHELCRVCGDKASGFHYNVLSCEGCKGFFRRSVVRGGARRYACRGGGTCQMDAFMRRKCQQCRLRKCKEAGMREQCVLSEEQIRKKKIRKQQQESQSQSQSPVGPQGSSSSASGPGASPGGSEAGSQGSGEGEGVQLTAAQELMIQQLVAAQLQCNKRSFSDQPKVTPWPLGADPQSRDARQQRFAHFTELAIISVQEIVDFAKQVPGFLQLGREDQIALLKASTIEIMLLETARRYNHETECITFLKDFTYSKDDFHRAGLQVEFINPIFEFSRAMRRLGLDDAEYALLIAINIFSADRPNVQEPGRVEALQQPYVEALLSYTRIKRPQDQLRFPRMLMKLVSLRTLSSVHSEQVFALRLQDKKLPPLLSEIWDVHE

BJ [5] = experiment: BJ-TERT fibroblast viability loss – cell-based, RAS-independent, luminescence, dose response (AID 1933); assay type: functional; settings: Homo sapiens
[6] = target: T2, Heat shock factor protein 1 (Mus musculus, UniProt P38532); experiment: decrease of HSF1-responsive luciferase luminescence – cell-based, NIH3T3, dose retest, confirmation (AID 2382); assay type: functional;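 further: NIH3T3 fibroblasts with HSF1-driven luciferase reporter stressed by proteasome inhibitor MG132; luminescence from HSF1-driven luciferase expression after 8 hours of MG132 stress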
T2 sequence (P38532 whole entry): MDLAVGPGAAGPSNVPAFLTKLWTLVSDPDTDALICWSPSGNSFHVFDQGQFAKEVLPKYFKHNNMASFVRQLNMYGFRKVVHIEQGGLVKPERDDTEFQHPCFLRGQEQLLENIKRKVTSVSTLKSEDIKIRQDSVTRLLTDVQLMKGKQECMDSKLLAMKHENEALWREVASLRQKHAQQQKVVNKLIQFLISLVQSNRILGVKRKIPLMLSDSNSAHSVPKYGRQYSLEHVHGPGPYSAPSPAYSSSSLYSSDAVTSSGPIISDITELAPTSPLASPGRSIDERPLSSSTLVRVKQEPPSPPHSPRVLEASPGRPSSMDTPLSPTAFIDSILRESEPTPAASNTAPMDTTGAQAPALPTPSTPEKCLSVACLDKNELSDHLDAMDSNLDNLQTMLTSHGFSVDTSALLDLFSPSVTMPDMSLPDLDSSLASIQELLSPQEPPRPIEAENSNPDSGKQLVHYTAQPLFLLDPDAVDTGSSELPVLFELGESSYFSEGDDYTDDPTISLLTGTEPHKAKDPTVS

BJ [7] = experiment: cells; assay type: functional, cell-based; settings: Homo sapiens
BJ [8] = experiment: BJ-TERT-LT-ST fibroblast viability loss – cell-based, RAS-independent, luminescence, dose response (AID 1935); assay type: functional; settings: Homo sapiens;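 further: BJ fibroblasts immortalized with TERT plus LT and ST oncogenes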
[9] = DRD fibroblast viability loss – cell-based, non-viral oncogenic, luminescence, dose response (AID 1934); assay type: functional; settings: Homo sapiens
[10] = HEK-293T viability loss after treatment – luminescence, T-cell screen hits, cytotoxicity control for TCR NF-kB inhibitor project, dose response (AID 489026); assay type: functional, cell-based;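 further: cells exposed to compound about 14 hours before the viability readout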
BJ [11] = experiment: growth inhibition of engineered Ras-driven BJ cells – cell-based, alamar blue fluorescence, cherrypicked samples, dose response (AID 2631); assay type: functional; settings: Homo sapiens;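 further: confirmatory dose-response assay in RAS-dependent BJ fibroblasts engineered with TERT, LT and ST, with cytotoxicity read by fluorescence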
[12] = reduction of Shn3 3'UTR-driven luciferase in osteoblasts – cell-based, Clone20 osteoblasts, firefly luciferase, cherry-picked, dose response (AID 624132); assay type: functional;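 further: firefly luciferase luminescence from reporter carrying the Shn3 3'UTR in osteoblasts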
[13] = non-specific 3'UTR reporter inhibition in Clone20-Shn3RL – cell-based, Renilla luciferase, cherry-picked, counter-screen for Shn3 inhibitor project, dose response (AID 624133); assay type: functional
Paired box protein Pax-8 = Paired box protein Pax-8 (Homo sapiens, UniProt Q06710); experiment: PAX8 transcriptional activity inhibition in RMG-I – RMG-I cells, luciferase, cherry-pick, dose response (AID 687027); assay type: functional, cell-based;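 further: luciferase reporter driven by Pax8 target thyroperoxidase promoter measured by SteadyGlo luminescence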
Paired box protein Pax-8, sequence (Q06710 whole entry): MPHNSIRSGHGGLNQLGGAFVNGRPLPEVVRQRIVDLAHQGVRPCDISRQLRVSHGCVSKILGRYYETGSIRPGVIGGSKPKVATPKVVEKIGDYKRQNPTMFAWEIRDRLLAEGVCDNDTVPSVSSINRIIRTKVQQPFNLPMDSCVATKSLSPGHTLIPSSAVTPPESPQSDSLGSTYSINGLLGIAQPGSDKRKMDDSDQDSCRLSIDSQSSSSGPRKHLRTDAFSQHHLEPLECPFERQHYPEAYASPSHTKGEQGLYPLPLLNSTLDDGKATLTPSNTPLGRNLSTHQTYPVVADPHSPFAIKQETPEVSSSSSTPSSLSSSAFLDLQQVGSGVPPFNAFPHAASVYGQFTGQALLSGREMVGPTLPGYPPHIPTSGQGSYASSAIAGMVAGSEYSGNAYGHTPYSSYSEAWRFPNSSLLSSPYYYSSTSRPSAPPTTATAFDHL

[14] = inhibitors acting on PAX2 in cells – cell-based, plate reader, dry powder samples, selectivity assay for PAX8 inhibitor project, dose response (AID 743048); assay type: functional;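 further: HEK293 cells carrying a WT1 promoter luciferase reporter driven by expressed Pax2; potency is for inhibition of Pax2 driven reporter signal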
[15] = COV362 cell viability loss – plate reader, dry powder, SA12, cytotoxicity control for PAX8 inhibitor project, dose response (AID 743144); assay type: functional, cell-based
[16] = toxicity toward immortalized ovarian surface epithelium – cell-based, plate reader, dry powder samples, cytotoxicity control for PAX8 inhibitor project, dose response (AID 743045); assay type: functional
[17] = A2780 cell killing – plate reader, dry powder samples, cytotoxicity control, dose response (AID 743046); assay type: functional, cell-based
[18] = OVCAR-3 cell viability loss – plate reader, dry powder samples, PAX8 inhibitor project, dose response (AID 743044); assay type: functional, cell-based
[19] = PAX5 cellular inhibition readout – cell-based, plate reader, dry powder samples, selectivity assay for PAX8 inhibitor project, dose response (AID 743047); assay type: functional;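 further: HEK293 cells carrying a Pax5 driven CD19 promoter luciferase reporter; potency of inhibitors that lower reporter luminescence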
[20] = IGROV1 cell killing – plate reader, dry powder samples, PAX8 inhibitor project, dose response (AID 743043); assay type: functional, cell-based; settings: IGROV-1
[21] = OVCAR4 cell viability loss – plate reader, dry powder, SA11, cytotoxicity control for PAX8 inhibitor project, dose response (AID 743150); assay type: functional, cell-based; settings: OVCAR-4
[22] = COV434 cell viability loss – plate reader, dry powder, SA7, cytotoxicity control for PAX8 inhibitor project, dose response (AID 743145); assay type: functional, cell-based
[23] = OV-90 cell viability loss – plate reader, dry powder, SA8, PAX8 inhibitor project, dose response (AID 743149); assay type: functional, cell-based
[24] = PAX8-dependent cell viability loss – plate reader, dry powder, dose response (AID 743049); assay type: functional, cell-based

NCC(=O)Nc1ccc(-n2nc(C(F)(F)F)cc2-c2ccc3c(ccc4ccccc43)c2)cc1 [AR-12]
active: AC50 [1] 8.29 µM | AC50 [2] 18.3 µM | AC50 (cells) 4.39 µM

COc1ccc(-c2noc(CCC(=O)N3CCC(c4cc(C)ccc4C)CC3)n2)cc1
inactive: IC50 [3] > 67.5 µM | EC50 [4] > 67.5 µM

COc1ccc(C)cc1NS(=O)(=O)c1ccc(-c2cnc(C3CC3)o2)cc1
inactive: IC50 [10] > 80 µM
active: EC50 (BJ [5]) 0.208 µM | EC50 [6] 0.43 µM | EC50 (BJ [7]) 0.99 µM | EC50 [9] 0.388 µM | EC50 (BJ [11]) < 0.104 µM | AC50 [12] 3.76 µM | AC50 [13] 6.58 µM | AC50 (Paired box protein Pax-8) 0.734 µM | AC50 [14] 8.91 µM | AC50 [15] 0.118 µM | AC50 [16] 0.217 µM | AC50 [17] 3.45 µM | AC50 [18] 1.77 µM | AC50 [19] 1.83 µM | AC50 [20] 1.49 µM | AC50 [21] 0.199 µM | AC50 [22] 0.337 µM | AC50 [23] 0.612 µM | AC50 [24] 5.69 µM
inconclusive: EC50 (BJ [8]) 11.1 µM
